What all share (set-up): species or system SD rat
The subject of assay [1] is isolated crystalline lenses. Description: Quantitative ex vivo study: ex-vivo diabetic cataract models using galactose-containing media, percentage of opacity by image analysis. The note with it: for Percentage of opacity of crystalline lens, Day 6: Day 6 = 3 days after restart of culture with 30 mM galactose and PPAR activator; for Percentage of opacity of crystalline lens, Day 3: Day 3 = 3 days in 30 mM galactose medium, before addition of PPAR activator; for effect on the percentage of opacity of the crystalline lens (conclusion from Table 1): ex vivo, low concentration. As to the method: In Example 2, effects of each agent were tested with use of ex-vivo diabetic cataract models using galactose-containing media, in a similar manner to Example 1.
(§1) The crystalline lenses were isolated from the right and left eyeballs of a 6-week-old SD rat (available from Sankyo Labo Service Corporation).
The isolated crystalline lenses were cultured with use of a medium obtained by adding 30 mM of galactose to an M199 medium (available from SIGMA). After that, the crystalline lenses were cultured with use of a medium obtained by adding 30 mM of galactose and a PPAR activator to an M199 medium.
(§2) Specific points in time at which observation was carried out are as follows. Note that the crystalline lenses were cultured with use of an incubator, the internal temperature of which was maintained at 37° C.
First, 3 days after the start of the culture of the crystalline lenses using the medium obtained by adding 30 mM of galactose to an M199 medium (available from SIGMA), the crystalline lenses were removed from the medium and observed by microscopy under a microscope SZX12 (available from Olympas).
After the microscopy, a PPAR activator was added to the medium, and the culture of the crystalline lenses was restarted. 3 days after the restart of the culture, the crystalline lenses were removed from the medium and observed again by microscopy under the microscope SZX12 (available from Olympas). Note that, for the purpose of clarifying the effects of the PPAR activator, control crystalline lenses were cultured again using a medium having no PPAR activators added thereto.
The images obtained by the microscopy were imported into image processing software (Image J), and the number of pixels was analyzed. In this way, the total area of the crystalline lens and the area of the opaque area were calculated. The percentage of opacity of the crystalline lens was calculated using the following equation.
Percentage of opacity of crystalline lens (%)=100×{(area of opaque area of crystalline lens)/(total area of crystalline lens)}

For assay [2], the system named is in-vivo diabetic cataract models raised on galactose feed. Description: In vivo study: in-vivo diabetic cataract models raised on galactose feed, instillation to the eye. As to conditions: for Percentage of opacity of crystalline lens, Left eye: instillation to left eye four times a day for 1 week, feed containing 25% galactose; for effect on the area of the opaque area of the crystalline lens in vivo (conclusion from Table 2): left eye versus DMSO right eye. As to the method:
In Example 3, effects of each agent were tested with use of in-vivo diabetic cataract models raised on galactose feed.
For the purpose of inducing cataract, a 3-week-old SD rat (available from Sankyo Labo Service Corporation) was raised for 1 week on feed containing 25% galactose. Concurrently, during the feeding period, ophthalmic agents were administered by instillation to both eyes of the rat every day (four times a day). The components of the ophthalmic agents were as follows: dimethyl sulfoxide (DMSO; administered as a control) for the right eye; and DMSO containing a PPAR activator for the left eye. On the last day of the feeding period, the crystalline lenses were isolated from the right and left eyes of the rat, and observed by microscopy.
The type of PPAR activator administered to the left eye and its concentration in Example 3 are as follows.
The total area of the crystalline lens, the area of the opaque area of the crystalline lens, and the percentage of opacity of the crystalline lens were calculated in the same manner as described in Example 2.

Assay [3] relates to isolated crystalline lenses. In words: Ex vivo study: ex-vivo diabetic cataract models using galactose-containing media (microscopy). The note with it: 800 μM PPAR activator added after 3 days in 30 mM galactose M199 medium; observed 3 days after restart of culture (Day 6). How it is done: In Example 1, effects of each agent were tested with use of ex-vivo diabetic cataract models using galactose-containing media.
as §1
The isolated crystalline lenses were cultured with use of a medium obtained by adding 30 mM of galactose to an M199 medium (available from SIGMA). After that, the crystalline lenses were cultured with use of a medium obtained by adding 30 mM of galactose and 800 μM of a PPAR activator (specifically, bezafibrate or fenofibrate) to an M199 medium.
as §2
First, 3 days after the start of the culture of the crystalline lenses using the medium obtained by adding 30 mM of galactose to an M199 medium (available from SIGMA), the crystalline lenses were removed from the medium and observed by microscopy under a SZX12 microscope (available from Olympas).
After the microscopy, a PPAR activator was added to the medium, and the culture of the crystalline lenses was restarted. […]

For `CCOC(=O)C(C)(C)Oc1ccc(Cl)cc1` [Clofibrate, ethyl 2-(4-chlorophenoxy)-2-methylpropanoate], the “Percentage of opacity of crystalline lens, Day 6” value (shortened to “Percentage of opacity … Day 6”) in assay [1] (25 μM) amounted to 27.3%; in assay [1] (100 μM) it was 5.7%. Further, the “Percentage of opacity of crystalline lens, Day 3” value (“Percentage of opacity … Day 3” for short) is 9.7% in assay [1] (lens later given 25 μM) and 7.6% in assay [1] (lens later given 100 μM).
As to `CC(C)(Oc1ccc(C2CC2(Cl)Cl)cc1)C(=O)O` (stereo not drawn) [Ciprofibrate, 2-[4-(2,2-dichlorocyclopropyl)phenoxy]-2-methylpropanoic acid], the “Percentage of opacity of crystalline lens, Left eye” value (“Percentage of opacity … Left eye” below) in assay [2] (200 mM in DMSO) was found to be 30.2%. Moreover, in assay [2] (200 mM in DMSO), the “effect on the area of the opaque area of the crystalline lens in vivo (conclusion from Table 2)” value (from here on “effect on the area”) is “have the effect of reducing the area of the opaque area of the crystalline lens in vivo”. The “Percentage of opacity … Day 6” value in assay [1] (25 μM) is reported as 15.7%; in assay [1] (100 μM), 2.0%. Besides, the “effect on the percentage of opacity of the crystalline lens (conclusion from Table 1)” value (shortened to “effect on the percentage”) in assay [1] is listed as “have the effect of reducing the percentage of opacity of the crystalline lens even when used at low concentration”. Also, the “Percentage of opacity … Day 3” value was found to be 17.5% in assay [1] (lens later given 25 μM) and 16.7% in assay [1] (lens later given 100 μM).
Take `CN(CCOc1ccc(CC2SC(=O)NC2=O)cc1)c1ccccn1` (stereo not drawn) [Rosiglitazone, 5-[[4-[2-[methyl(pyridin-2-yl)amino]ethoxy]phenyl]methyl]-1,3-thiazolidine-2,4-dione]: the “Percentage of opacity … Left eye” value in assay [2] (200 mM in DMSO) stood at 30.6%. Besides, in assay [2] (200 mM in DMSO), the “effect on the area” value is on record as “have the effect of reducing the area of the opaque area of the crystalline lens in vivo”. The “Percentage of opacity … Day 6” value in assay [1] (20 μM) came out at 20.9%; in assay [1] (80 μM), 2.2%. Also, the “effect on the percentage” value in assay [1] was “have the effect of reducing the percentage of opacity of the crystalline lens even when used at low concentration”. In addition, the figures for the “Percentage of opacity … Day 3” value in assay [1] (lens later given 20 μM) and in assay [1] (lens later given 80 μM) were 22.8% and 15.6%, respectively.
Turning to `Cc1ccc(C)c(OCCCC(C)(C)C(=O)O)c1` [Gemfibrozil, 5-(2,5-dimethylphenoxy)-2,2-dimethylpentanoicacid], the “Percentage of opacity … Left eye” value in assay [2] (200 mM in DMSO) was 40.4%. In assay [2] (200 mM in DMSO), the “effect on the area” value is recorded as “have the effect of reducing the area of the opaque area of the crystalline lens in vivo”. In addition, the figures for the “Percentage of opacity … Day 6” value in assay [1] (0.8 μM) and in assay [1] (25 μM) were 10.3% and 8.2%, respectively. Also, in assay [1], the “effect on the percentage” value is “have the effect of reducing the percentage of opacity of the crystalline lens even when used at low concentration”. For the same compound, the “Percentage of opacity … Day 3” value in assay [1] (lens later given 0.8 μM) turned out to be 15.4%; in assay [1] (lens later given 25 μM), 13.8%.
With `CC(C)(Oc1ccc(Cl)cc1)C(=O)OCCOC(=O)c1cccnc1` [Etofibrate, 2-[2-(4-chlorophenoxy)-2-methylpropanoyl]oxyethyl pyridine-3-carboxylate], in assay [2] (140 mM in DMSO), the “Percentage of opacity … Left eye” value is recorded as 42.8%. For the same compound, the “Percentage of opacity … Day 6” value in assay [1] (25 μM) was found to be 25.2%; in assay [1] (100 μM), 3.2%. For the same compound, the “Percentage of opacity … Day 3” value in assay [1] (lens later given 25 μM) came to 16.8%; in assay [1] (lens later given 100 μM), 11.4%.
With `CC(C)(Oc1ccc(CCNC(=O)c2ccc(Cl)cc2)cc1)C(=O)O` [Bezafibrate, 2-[4-[2-[(4-chlorobenzoyl)amino]ethyl]phenoxy]-2-methylpropanoic acid], in assay [3], the “effect on opacity of the cortex of the crystalline lens (microscopy)” value was “have the effect of therapeutic treatment of cataract after its development”. For the same compound, in assay [1] (200 μM), the “Percentage of opacity … Day 6” value is reported as 28.0%. In addition, the “Percentage of opacity … Day 3” value in assay [1] (lens later given 200 μM) was found to be 27.1%.
For `CCc1ccc(CCOc2ccc(CC3SC(=O)NC3=O)cc2)nc1` (stereo not drawn) [Pioglitazone, 5-[[4-[2-(5-ethylpyridin-2-yl)ethoxy]phenyl]methyl]-1,3-thiazolidine-2,4-dione], in assay [2] (200 mM in DMSO), the “Percentage of opacity … Left eye” value amounted to 44.2% and the “effect on the area” value is “did not show the effect of reducing the area of the opaque area of the crystalline lens in vivo”.
For `CC(C)OC(=O)C(C)(C)Oc1ccc(C(=O)c2ccc(Cl)cc2)cc1` [Fenofibrate, propan-2-yl 2-[4-(4-chlorobenzoyl)phenoxy]-2-methylpropanoate], the “effect on opacity of the cortex of the crystalline lens (microscopy)” value in assay [3] is given as “have the effect of therapeutic treatment of cataract after its development”.

The values are drawn from patent US20210059997A1, “PROPHYLACTIC AGENT AND/OR THERAPEUTIC AGENT FOR CATARACT, MEDICINAL COMPOSITION FOR PREVENTING AND/OR TREATING CATARACT, USE OF PPAR ACTIVATOR FOR PRODUCING SAME, AND EYEDROPS” (UNIVERSITY OF FUKUI, priority 2017, published 2021).
